Measured values published in ChEMBL document CHEMBL1201862, “PubChem BioAssay data set” (2004).
Activity calls are given as the source filed them.

Experiments:
[1] = cytotoxicity in HMLE control line with eGFP shRNA, dose response, counter-screen for HMLE_sh_ECad selective toxicity project, cell-based, HMLE_sh_eGFP, luminescence (AID 463074); format: functional, Homo sapiens;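 also: HMLE human mammary epithelial cells expressing control shRNA against eGFP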
[2] = Luminescence Cell-Based Dose Retest to Confirm Inhibitors of Cancer Stem Cells. [Related pubchem assays (depositor defined):AID2717, AID2721]; format: functional; details: Homo sapiens
[3] = test system: HeLa; assay: HeLa cell cytotoxicity, dose response, cytotoxicity control, 24 h, cherry-picked samples (AID 504726); format: functional, cell-based; details: Homo sapiens;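 also: potency for cytotoxicity as loss of luminescence signal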
[4] = target: T1, Fibrinogen beta chain (Homo sapiens, UniProt P02675); assay: Fluorescence polarization-based biochemical high throughput dose response assay to identify inhibitors that disrupt the binding of a cyclic peptide (Tn6) to the fibrin proteolytic product D-Dimer and fragment E complex [DD(E )].
T1 sequence (P02675 whole entry, the tested form may be a part): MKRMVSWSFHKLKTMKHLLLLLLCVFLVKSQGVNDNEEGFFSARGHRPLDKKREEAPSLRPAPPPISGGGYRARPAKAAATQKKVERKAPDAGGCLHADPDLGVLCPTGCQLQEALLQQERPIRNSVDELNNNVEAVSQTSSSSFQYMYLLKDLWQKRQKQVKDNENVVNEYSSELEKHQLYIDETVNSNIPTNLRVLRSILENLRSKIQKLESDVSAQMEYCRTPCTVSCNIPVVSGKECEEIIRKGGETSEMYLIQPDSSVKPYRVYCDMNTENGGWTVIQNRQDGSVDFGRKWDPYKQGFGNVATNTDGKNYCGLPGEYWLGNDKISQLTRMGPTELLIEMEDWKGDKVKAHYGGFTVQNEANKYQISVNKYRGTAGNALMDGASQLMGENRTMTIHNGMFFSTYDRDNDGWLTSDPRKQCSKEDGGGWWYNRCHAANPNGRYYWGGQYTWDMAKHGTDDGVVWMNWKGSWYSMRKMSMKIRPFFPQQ

[5] = target: T1, Fibrinogen beta chain; assay: Fluorescence polarization-based biochemical high throughput dose response assay to identify inhibitors that disrupt the binding of a cyclic peptide (Tn7) to the fibrin proteolytic product D-Dimer and fragment E complex [DD(E )].
[6] = test system: HEK293; assay: HEK cell cytotoxicity by LDH release, dose response, cytotoxicity control for IDE activator project, fluorescence, HEK cells (AID 588440); format: functional, cell-based; details: Homo sapiens;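 also: cytotoxicity by LDH release measuring loss of membrane integrity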
[7] = target: Keap1/Nrf2 (Homo sapiens, UniProt Q14145); assay: Keap1-Nrf2 protein-protein interaction inhibitors, dose response, biochemical, fluorescence polarization, cherry-picked samples (AID 588683)
Sequence of Keap1/Nrf2 (Q16236 whole entry): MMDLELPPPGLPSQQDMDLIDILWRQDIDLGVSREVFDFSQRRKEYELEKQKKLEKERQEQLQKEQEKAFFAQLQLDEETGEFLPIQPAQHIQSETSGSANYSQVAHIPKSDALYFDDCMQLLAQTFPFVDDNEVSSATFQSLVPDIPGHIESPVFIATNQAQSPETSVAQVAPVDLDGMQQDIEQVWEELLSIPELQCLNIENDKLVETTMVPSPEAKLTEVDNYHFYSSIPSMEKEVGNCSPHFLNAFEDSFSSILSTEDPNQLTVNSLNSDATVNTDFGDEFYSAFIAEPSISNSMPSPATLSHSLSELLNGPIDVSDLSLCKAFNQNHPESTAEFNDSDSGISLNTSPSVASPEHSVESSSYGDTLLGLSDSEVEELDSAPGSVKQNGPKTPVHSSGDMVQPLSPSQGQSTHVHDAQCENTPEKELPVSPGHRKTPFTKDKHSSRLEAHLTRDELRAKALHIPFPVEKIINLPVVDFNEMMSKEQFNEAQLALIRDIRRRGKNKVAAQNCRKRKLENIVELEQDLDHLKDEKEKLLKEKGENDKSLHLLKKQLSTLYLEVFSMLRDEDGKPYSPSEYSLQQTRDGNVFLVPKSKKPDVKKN
Sequence of Keap1/Nrf2 (Q14145 whole entry): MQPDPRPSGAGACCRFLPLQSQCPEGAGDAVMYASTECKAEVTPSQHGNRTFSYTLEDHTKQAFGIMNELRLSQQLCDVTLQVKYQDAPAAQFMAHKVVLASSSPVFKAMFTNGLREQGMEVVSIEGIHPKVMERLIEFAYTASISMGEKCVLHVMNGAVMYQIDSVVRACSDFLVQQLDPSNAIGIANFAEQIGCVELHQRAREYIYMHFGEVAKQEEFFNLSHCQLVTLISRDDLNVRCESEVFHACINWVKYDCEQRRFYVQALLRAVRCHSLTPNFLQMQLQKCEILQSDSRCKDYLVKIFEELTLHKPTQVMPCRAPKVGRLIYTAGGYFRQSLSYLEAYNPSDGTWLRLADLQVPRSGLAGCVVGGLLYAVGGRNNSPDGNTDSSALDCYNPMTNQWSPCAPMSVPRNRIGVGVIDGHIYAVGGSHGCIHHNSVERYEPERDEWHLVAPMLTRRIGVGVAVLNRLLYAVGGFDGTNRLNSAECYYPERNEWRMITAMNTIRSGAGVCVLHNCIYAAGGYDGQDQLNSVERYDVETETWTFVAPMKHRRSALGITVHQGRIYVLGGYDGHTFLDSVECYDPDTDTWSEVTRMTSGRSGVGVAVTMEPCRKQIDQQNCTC

[8] = test system: HEK293; assay: optical interference in Abeta FP readout, dose response, artefact control for IDE activator project, biochemical, fluorescence polarization (AID 588442); format: functional, cell-based; details: Homo sapiens
[9] = target: T2, Insulin-degrading enzyme (Homo sapiens, UniProt P14735); assay: activators of endogenous IDE in HEK cells, dose response, cell-based, fluorescence polarization (AID 588439); format: functional
T2 sequence (P14735 whole entry): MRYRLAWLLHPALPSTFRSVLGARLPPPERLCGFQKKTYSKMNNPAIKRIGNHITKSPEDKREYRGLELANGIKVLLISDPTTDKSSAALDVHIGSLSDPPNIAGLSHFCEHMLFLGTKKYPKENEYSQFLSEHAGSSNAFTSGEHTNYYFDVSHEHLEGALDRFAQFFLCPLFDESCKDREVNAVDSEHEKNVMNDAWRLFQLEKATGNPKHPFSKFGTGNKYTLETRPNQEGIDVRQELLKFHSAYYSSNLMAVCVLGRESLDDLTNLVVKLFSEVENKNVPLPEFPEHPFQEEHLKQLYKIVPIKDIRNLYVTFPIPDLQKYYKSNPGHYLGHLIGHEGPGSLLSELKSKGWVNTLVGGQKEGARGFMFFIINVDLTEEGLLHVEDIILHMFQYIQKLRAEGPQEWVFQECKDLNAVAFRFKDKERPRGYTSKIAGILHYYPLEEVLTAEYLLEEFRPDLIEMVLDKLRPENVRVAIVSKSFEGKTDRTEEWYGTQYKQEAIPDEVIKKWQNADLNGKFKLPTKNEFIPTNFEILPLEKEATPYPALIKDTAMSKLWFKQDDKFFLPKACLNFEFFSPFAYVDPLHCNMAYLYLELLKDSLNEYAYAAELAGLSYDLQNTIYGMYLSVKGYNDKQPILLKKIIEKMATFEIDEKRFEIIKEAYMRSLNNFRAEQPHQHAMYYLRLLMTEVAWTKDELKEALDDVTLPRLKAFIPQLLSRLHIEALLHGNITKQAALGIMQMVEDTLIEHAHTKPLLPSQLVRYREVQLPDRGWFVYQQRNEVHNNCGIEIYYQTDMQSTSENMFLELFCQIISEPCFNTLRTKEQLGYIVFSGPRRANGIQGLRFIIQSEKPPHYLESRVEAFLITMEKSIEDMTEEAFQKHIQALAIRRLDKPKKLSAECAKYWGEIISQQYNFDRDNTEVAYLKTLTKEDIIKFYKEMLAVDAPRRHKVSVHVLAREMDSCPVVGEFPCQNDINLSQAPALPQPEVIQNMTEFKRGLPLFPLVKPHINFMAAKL

[10] = target: ORF 73 (Human herpesvirus 8, UniProt O40947); assay: inhibitors of C-LANA binding to LBS DNA, dose response, biochemical, fluorescence polarization, cherry-picked samples (AID 504725); parameters: species or system Human gammaherpesvirus 8;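 also: fluorescence polarization of a labeled DNA duplex reporting LANA DNA binding; potency is for inhibitors that block LANA binding to the DNA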
Sequence of ORF 73 (O40947 whole entry): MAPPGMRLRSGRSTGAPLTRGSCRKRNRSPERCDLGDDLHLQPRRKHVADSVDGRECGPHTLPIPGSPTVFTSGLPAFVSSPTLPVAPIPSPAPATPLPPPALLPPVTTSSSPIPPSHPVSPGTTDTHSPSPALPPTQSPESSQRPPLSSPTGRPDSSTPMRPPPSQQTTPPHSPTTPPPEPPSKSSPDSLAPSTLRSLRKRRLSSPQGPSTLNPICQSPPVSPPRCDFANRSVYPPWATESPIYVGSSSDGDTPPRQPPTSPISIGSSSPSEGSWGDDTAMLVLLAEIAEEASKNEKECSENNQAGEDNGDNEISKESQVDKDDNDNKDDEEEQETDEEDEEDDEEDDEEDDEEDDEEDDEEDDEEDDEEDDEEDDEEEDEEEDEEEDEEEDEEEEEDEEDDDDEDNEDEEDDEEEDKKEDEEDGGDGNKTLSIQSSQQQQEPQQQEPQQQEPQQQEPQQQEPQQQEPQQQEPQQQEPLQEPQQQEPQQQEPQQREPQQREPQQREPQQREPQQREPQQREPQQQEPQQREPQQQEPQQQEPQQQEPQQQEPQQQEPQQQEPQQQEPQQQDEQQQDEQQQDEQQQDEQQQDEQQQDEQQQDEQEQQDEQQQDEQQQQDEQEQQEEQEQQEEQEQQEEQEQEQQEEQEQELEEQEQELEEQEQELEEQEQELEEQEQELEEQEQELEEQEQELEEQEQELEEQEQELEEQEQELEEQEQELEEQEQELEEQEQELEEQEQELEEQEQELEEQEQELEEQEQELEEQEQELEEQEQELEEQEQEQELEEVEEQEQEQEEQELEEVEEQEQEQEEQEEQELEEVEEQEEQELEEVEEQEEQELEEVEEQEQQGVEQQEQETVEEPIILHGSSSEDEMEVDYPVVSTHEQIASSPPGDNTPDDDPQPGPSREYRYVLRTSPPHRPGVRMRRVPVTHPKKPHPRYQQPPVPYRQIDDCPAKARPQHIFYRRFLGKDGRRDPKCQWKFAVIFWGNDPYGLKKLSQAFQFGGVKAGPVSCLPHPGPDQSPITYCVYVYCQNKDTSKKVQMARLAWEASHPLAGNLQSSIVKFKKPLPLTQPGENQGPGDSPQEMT

[11] = target: Troponin, cardiac muscle (Homo sapiens, UniProt P19429+P45379+P63316); assay: Fluorescence-based biochemical high throughput dose response assay for activators of the calcium sensitivity of cardiac Regulated Thin Filaments (RTF). [Related pubchem assays (depositor defined):AID493008, AID493018, AID504382, AID504383]; format: protein-complex assay
[12] = target: T2, Insulin-degrading enzyme; assay: activators of recombinant IDE enzyme, dose response, counter-screen for IDE activator project, biochemical, fluorescence polarization (AID 588681)
[13] = growth induction of Burl-1 ts yeast mutant, dose response, counter-screen for SUMOylation pathway inhibitor project, whole organism, S. cerevisiae, luminescence (AID 463199); format: functional
[14] = target: T3, Dual specificity protein phosphatase 6 (Rattus norvegicus, UniProt Q64346); assay: MKP-3 phosphatase inhibitors, primary screen, biochemical, rat enzyme, in vitro (AID 425)
T3 sequence (Q64346 whole entry): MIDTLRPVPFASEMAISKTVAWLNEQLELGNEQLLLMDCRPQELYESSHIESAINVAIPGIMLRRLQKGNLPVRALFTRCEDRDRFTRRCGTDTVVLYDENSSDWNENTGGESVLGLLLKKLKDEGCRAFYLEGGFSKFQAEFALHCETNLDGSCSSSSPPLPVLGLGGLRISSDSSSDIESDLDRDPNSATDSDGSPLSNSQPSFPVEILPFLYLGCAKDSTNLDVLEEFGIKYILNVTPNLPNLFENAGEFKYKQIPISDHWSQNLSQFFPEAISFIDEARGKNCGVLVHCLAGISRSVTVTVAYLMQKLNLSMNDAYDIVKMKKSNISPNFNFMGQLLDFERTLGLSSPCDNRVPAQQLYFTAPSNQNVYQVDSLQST

[15] = target: T4, Dual specificity protein phosphatase 3 (Homo sapiens, UniProt P51452); assay: SAR VHR1 Fluorescent Assay for In Vitro dose response studies. [Related pubchem assays (depositor defined):AID1654, AID1661, AID1878, AID1992, AID2004, AID2070, AID2085]; format: functional
T4 sequence (P51452 whole entry): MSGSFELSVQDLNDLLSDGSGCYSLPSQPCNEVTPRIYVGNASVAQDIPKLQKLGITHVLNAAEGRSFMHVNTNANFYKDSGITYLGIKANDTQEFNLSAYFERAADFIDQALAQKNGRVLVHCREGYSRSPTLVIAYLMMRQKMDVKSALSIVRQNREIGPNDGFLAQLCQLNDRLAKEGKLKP

[16] = target: T3, Dual specificity protein phosphatase 6; assay: SAR analysis of inhibitors of MKP-3 - Set 2. [Related pubchem assays (depositor defined):AID1055, AID1661, AID425, AID553, AID566]; format: functional
[17] = target: T4, Dual specificity protein phosphatase 3; assay: VHR1 phosphatase inhibitors, biochemical (AID 1878)
[18] = target: T5, Tyrosine-protein phosphatase non-receptor type 7 (Homo sapiens, UniProt P35236); assay: SAR analysis of chemical inhibitors of HePTP using a Fluorescent assay - Set 2. [Related pubchem assays (depositor defined):AID1059, AID1077, AID1661, AID2085, AID521]; format: functional
T5 sequence (P35236 whole entry): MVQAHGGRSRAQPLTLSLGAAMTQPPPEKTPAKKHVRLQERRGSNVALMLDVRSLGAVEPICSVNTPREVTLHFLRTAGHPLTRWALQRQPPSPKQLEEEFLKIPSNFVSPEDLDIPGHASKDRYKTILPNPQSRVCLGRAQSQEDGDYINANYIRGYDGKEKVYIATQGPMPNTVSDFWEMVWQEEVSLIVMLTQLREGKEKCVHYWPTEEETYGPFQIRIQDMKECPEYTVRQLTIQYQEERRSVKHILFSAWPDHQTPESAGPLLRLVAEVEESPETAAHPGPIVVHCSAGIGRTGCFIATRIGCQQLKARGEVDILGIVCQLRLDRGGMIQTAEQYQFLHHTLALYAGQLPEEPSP

[19] = target: T3, Dual specificity protein phosphatase 6; format: functional
[20] = target: T5, Tyrosine-protein phosphatase non-receptor type 7; assay: redox-dependent HePTP inhibition, mechanism study, biochemical, fluorescence (AID 2068); format: functional
[21] = target: 26S proteasome non-ATPase regulatory subunit 14 (Homo sapiens, UniProt O00487); assay: inhibition of proteasome subunit RPN11 – biochemical, fluorescence polarization, uHTS hits, confirmation (AID 602368); format: functional
Sequence of 26S proteasome non-ATPase regulatory subunit 14 (O00487 whole entry): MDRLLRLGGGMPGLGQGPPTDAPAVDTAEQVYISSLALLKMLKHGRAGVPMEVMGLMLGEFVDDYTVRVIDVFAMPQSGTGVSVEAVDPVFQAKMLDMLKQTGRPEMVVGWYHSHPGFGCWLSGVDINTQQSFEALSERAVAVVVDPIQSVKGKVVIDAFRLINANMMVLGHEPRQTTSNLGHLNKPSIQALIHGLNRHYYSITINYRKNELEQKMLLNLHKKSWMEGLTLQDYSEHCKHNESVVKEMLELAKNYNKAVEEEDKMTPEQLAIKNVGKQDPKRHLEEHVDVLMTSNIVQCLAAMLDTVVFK

[22] = target: T4, Dual specificity protein phosphatase 3; assay: SAR VHR1 Fluorescent Assay for In Vitro dose response studies Set 2. [Related pubchem assays (depositor defined):AID1654, AID1661, AID1878]; format: functional
[23] = target: T4, Dual specificity protein phosphatase 3; assay: VHR1 phosphatase inhibitors, primary screen, biochemical, absorbance, uHTS (AID 1654)
[24] = target: T4, Dual specificity protein phosphatase 3; assay: SAR VHR1 absorbance Assay for In Vitro dose response studies. [Related pubchem assays (depositor defined):AID1654, AID1661, AID1878, AID1992, AID2004]
[25] = target: Prothrombin (Bos taurus, UniProt P00735); assay: thrombin inhibition, dose response, biochemical, fluorescence polarization, uHTS hits (AID 602369); format: functional
[26] = target: 72 kDa type IV collagenase (Homo sapiens, UniProt P08253); assay: Dose Response validation of uHTS RPN11 inhibitor hits using a MMP-2 Fluorescence assay.; format: functional
Sequence of 72 kDa type IV collagenase (P08253 whole entry): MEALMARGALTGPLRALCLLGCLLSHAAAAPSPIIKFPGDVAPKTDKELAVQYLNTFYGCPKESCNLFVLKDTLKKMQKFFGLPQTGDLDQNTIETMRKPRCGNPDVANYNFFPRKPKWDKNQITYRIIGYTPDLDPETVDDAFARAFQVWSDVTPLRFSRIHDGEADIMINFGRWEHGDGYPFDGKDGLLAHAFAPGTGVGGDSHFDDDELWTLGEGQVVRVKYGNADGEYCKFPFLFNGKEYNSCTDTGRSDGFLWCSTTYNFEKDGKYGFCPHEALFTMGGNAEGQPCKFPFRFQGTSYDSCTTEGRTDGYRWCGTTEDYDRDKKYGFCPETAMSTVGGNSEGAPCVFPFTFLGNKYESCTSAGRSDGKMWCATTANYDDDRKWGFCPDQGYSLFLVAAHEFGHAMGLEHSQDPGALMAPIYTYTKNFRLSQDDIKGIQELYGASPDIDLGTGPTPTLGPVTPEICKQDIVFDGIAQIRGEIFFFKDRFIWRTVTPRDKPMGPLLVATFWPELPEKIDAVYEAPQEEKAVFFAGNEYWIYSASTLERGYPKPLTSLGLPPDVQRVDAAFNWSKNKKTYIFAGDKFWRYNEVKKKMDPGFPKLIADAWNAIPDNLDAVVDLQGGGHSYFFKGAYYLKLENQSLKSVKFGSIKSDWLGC

Structure (SMILES): O=C(Nc1ccccc1N1CCCC1)c1cccc(-c2cc3ccccc3oc2=O)c1
- AC50 [1]: 41.2 µM (active)
- AC50 [2]: 1.88 µM (active)

Structure (SMILES): COc1ccc2ccccc2c1C(O)c1nccn1C (stereo unspecified)
- AC50 [3]: 297 µM (active)
- IC50 [4]: 13.1 µM (inactive)
- IC50 [5]: > 83.3 µM (inactive)
- IC50 [6]: > 89.2 µM (inactive)
- AC50 [7]: 1.45 µM (active)
- EC50 [8]: > 54.7 µM (inactive)
- EC50 [9]: > 54.7 µM (inactive)
- AC50 [10]: 3.41 µM (active)
- EC50 [11]: 7.99 µM (active)
- EC50 [12]: > 54.7 µM (inactive)

Structure (SMILES): CC1CCN(CCCCOc2cccc(C(C)C)c2)CC1
- AC50 [13]: 68.4 µM (active)

Structure (SMILES): O=C(O)c1ccc(NC(=S)NC(=O)c2ccc(-c3ccc(Br)cc3)o2)cc1
- IC50 [14]: 76.7 µM (active)
- IC50 [15]: 3.63 µM (active)
- IC50 [16]: > 100 µM (inactive)
- IC50 [17]: 1.88 µM (active)
- IC50 [18]: 0.314 µM (active)
- IC50 [19]: 55.8 µM (active)
- IC50 [20]: 0.227 µM (active)
- IC50 [21]: 15.2 µM (active)
- IC50 [22]: 0.226 µM (active)
- IC50 [23]: 6.72 µM (active)
- IC50 [24]: 3.35 µM (active)
- IC50 [25]: 60.7 µM (active)
- IC50 [26]: 3.68 µM (active)
